Values after ≈ are worked out from the molar mass of the structure shown.
What was measured:
Cdc2-related kinase [1] = target: T1, Cdc2-related kinase (Leishmania major, UniProt O96526); assay: Inhibition of Leishmania major CRK3 expressed in Escherichia coli BL21 (DE3) using 5FAM-GGGRSPGRRRRK-OH as substrate after 60 mins by IMAP assay
T1 sequence (O96526 whole entry): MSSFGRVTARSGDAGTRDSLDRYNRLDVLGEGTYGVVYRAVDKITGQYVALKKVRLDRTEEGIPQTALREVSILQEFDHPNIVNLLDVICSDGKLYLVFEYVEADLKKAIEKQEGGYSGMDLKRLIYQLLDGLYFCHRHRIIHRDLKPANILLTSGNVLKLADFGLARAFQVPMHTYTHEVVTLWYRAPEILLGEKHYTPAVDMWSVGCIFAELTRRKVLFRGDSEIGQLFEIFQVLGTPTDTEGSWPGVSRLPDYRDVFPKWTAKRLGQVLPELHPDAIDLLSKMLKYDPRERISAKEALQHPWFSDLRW

[2] = target: T2, Calcium-dependent protein kinase 4 (Plasmodium falciparum (isolate 3D7), UniProt Q8IBS5); assay: Inhibition of CDPK4 in Plasmodium falciparum 3D7 microgametes
T2 sequence (Q8IBS5 whole entry): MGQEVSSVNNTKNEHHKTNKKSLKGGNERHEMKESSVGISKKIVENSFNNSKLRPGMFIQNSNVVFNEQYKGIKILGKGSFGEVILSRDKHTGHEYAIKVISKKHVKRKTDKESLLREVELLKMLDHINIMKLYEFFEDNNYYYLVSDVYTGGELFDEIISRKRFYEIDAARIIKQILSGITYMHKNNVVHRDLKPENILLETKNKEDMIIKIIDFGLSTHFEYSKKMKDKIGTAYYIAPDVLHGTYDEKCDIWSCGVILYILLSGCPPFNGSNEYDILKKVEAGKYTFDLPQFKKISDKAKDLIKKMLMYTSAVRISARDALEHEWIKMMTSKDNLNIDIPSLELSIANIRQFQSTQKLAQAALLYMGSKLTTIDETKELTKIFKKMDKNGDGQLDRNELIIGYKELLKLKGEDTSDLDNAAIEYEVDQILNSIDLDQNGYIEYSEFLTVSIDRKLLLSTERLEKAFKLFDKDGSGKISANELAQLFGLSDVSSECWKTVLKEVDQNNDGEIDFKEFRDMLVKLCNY

[3] = target: Cyclin-dependent kinase 6 (Homo sapiens, UniProt Q00534); assay: Inhibition of human CDK6
Chain of Cyclin-dependent kinase 6 (Q00534 whole entry): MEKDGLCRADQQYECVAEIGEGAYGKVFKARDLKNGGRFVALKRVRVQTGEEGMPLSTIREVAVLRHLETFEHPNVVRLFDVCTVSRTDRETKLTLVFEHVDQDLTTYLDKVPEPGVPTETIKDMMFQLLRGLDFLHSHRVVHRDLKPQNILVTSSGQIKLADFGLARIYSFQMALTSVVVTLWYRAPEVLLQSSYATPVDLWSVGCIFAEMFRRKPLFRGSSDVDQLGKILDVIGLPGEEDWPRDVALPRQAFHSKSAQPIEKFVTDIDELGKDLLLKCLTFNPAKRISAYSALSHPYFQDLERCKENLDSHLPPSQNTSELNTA

[4] = target: Cyclin-dependent kinase 7 (Homo sapiens, UniProt P50613); assay: Inhibition of human CDK7
Chain of Cyclin-dependent kinase 7 (P50613 whole entry): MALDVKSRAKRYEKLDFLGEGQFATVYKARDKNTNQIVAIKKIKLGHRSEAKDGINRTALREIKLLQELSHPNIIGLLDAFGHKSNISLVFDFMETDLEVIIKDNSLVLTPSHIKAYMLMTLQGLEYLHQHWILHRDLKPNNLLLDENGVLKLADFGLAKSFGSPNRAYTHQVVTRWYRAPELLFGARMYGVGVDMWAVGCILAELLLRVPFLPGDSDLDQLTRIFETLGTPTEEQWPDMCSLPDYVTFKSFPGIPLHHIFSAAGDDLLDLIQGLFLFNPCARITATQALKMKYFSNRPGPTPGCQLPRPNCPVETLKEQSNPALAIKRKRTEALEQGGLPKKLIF

[5] = target: Cyclin-dependent kinase 2 (Homo sapiens, UniProt P24941); assay: Inhibition of human CDK2
[6] = Inhibition of Plasmodium falciparum MPK
[7] = target: Cyclin-dependent kinase 1 (Homo sapiens, UniProt P06493); assay: Inhibition of human CDK1
Chain of Cyclin-dependent kinase 1 (P06493 whole entry): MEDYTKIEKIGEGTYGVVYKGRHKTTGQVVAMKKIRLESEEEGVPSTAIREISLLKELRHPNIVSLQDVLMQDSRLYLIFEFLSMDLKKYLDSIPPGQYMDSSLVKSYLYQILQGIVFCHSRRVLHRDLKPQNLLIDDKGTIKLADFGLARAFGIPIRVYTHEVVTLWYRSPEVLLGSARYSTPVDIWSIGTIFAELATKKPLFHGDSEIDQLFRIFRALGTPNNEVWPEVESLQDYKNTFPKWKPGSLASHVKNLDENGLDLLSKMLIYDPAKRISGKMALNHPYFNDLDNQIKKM

Plasmodium falciparum = assay: Antimalarial activity against Plasmodium falciparum; format: functional, organism-based
[8] = Selectivity ratio of cytotoxicity for […] to IC50 for Mycobacterium tuberculosis H37Rv; format: cell-based
[9] = tested on: Mycobacterium tuberculosis; assay: Antitubercular activity against Mycobacterium tuberculosis H37Rv by high throughput assay; format: functional
Toxoplasma gondii = assay: Antiprotozoal activity against Toxoplasma gondii expressing low level of ROP18 infected in human HFF cells; format: functional, organism-based
Trypanosoma brucei = assay: Antitrypanosomal activity against Trypanosoma brucei infected in Swiss Webster mouse assessed as cure rate at 20 mg/kg, ip bid administered 4 days post infection; format: functional; settings: route intraperitoneal
Leishmania donovani [10] = assay: Antileishmanial activity against Leishmania donovani MHOM/SD/62/1SCL2D amastigotes after 72 hrs by resazurin reduction assay; format: functional, organism-based
Leishmania donovani [11] = assay: Antileishmanial activity against Leishmania donovani MHOM/SD/62/1SCL2D promastigotes after 72 hrs by resazurin reduction assay; format: functional, organism-based
[12] = tested on: Trypanosoma brucei brucei; assay: Antitrypanosomal activity against procyclic Trypanosoma brucei brucei 29-13 after 72 hrs by resazurin microplate assay; format: functional, organism-based; settings: 29-13, 72 h
[13] = tested on: Trypanosoma brucei brucei; assay: Antitrypanosomal activity against bloodstream form of Trypanosoma brucei brucei 427 after 72 hrs by resazurin microplate assay; format: functional, organism-based; settings: Trypanosoma brucei, 427, 72 h
Leishmania major = assay: Antileishmanial activity against Leishmania major promastigotes; format: functional, organism-based
Cdc2-related kinase [14] = target: T1, Cdc2-related kinase; assay: Inhibition of Leishmania major CRK3 expressed in Escherichia coli BL21 (DE3) after 30 mins by autoradiography
[15] = target: cGMP-dependent protein kinase (Plasmodium falciparum, UniProt W7JX98); assay: Inhibition of PKG in Plasmodium falciparum 3D7 microgametes
Chain of cGMP-dependent protein kinase (W7JX98 whole entry): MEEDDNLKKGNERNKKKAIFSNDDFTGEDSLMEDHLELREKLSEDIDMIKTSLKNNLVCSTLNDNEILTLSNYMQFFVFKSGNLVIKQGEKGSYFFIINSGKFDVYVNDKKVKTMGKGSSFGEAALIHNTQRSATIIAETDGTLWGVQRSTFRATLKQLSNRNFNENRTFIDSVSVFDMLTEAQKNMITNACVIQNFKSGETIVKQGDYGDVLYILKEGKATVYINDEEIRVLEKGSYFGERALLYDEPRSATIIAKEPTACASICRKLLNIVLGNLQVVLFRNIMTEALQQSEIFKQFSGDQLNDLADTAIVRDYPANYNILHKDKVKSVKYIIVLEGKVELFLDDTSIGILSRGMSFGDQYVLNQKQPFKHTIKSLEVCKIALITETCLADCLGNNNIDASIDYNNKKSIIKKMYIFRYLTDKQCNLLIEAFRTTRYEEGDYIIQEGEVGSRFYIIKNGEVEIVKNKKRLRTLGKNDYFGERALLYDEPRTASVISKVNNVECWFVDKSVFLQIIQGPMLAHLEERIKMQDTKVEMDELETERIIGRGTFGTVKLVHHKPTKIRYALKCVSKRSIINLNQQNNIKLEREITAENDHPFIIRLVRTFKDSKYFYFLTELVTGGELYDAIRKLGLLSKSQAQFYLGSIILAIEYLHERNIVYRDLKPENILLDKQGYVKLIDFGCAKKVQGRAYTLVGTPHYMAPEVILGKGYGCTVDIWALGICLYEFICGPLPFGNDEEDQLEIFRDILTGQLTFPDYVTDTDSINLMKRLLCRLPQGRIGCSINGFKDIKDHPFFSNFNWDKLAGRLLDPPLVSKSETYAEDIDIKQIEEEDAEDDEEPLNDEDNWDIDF

In the case of `Cc1ccc(NC(=O)Nc2ccnc(-c3cccnc3)n2)cc1`, the IC50 (Cdc2-related kinase [1]) is reported as 1500 nM.
For `COc1cc(-c2ccc3nc(NC(=O)C4CCCCC4)nn3c2)ccc1O`, the IC50 (Cdc2-related kinase [1]) was 240 nM.
`Cc1cccc(-c2ccc3nc(NC(=O)C4CCCCC4)nn3c2)c1` gave an IC50 (Cdc2-related kinase [1]) of 60 nM.
Work on `CCN(Cc1ccc(/C=C2\C(=O)Nc3ccccc32)o1)S(C)(=O)=O` yielded an IC50 (Cdc2-related kinase [1]) of 510 nM.
Compound `CC(C)(C)n1nc(-c2ccc3ccccc3c2)c2c(N)ncnc21` has an IC50 [2] of 177 nM.
With `O=C(CBr)N(c1ccccc1)S(=O)(=O)c1cc(Cl)sc1Cl` the IC50 [3] was over 20000 nM, the IC50 [4] was over 20000 nM and the IC50 [5] was over 20000 nM. It also gave an IC50 [6] of 600 nM, an IC50 [7] of over 20000 nM and an IC50 (Plasmodium falciparum) of 17000 nM.
Work on `CC(=O)c1cccc(-c2cnn3ccc(Nc4ccc(N5CCOCC5)cc4)nc23)c1` yielded an IC50 (Cdc2-related kinase [1]) of 260 nM.
Compound `O=C(OCn1nnc2ccccc2c1=O)c1ccccc1` has a selectivity ratio [8] of over 28 and an IC90 [9] of 1.4 µg/mL (≈ 4.98 µM).
Work on `Cc1cc(C)cc(-c2ccc3nc(NC(=O)C4CCCCCC4)n(C)c3c2)c1` yielded an IC50 (Cdc2-related kinase [1]) of 5 nM.
With `O=C(Nc1nnc(-c2ccco2)o1)c1ccc(Oc2ccccc2)cc1` the selectivity ratio [8] was over 75 and the IC90 [9] was under 0.2 µg/mL.
In the case of `Oc1ccccc1-c1nc(NCc2cccnc2)c2ccccc2n1`, the IC50 (Cdc2-related kinase [1]) is reported as 11000 nM.
With `Cc1ccc(N(C(=O)CCl)S(=O)(=O)c2cc(Cl)sc2Cl)cc1` the IC50 [6] was 127000 nM.
`Cn1c(=O)c(/C=C/c2ccc3c(c2)OCO3)nc2ccccc21` showed an IC50 (Toxoplasma gondii) of 2 nM.
With `Cc1cc(C)cc(-c2ccc3nc(NC(=O)C4CCCCC4)nn3c2)c1` the IC50 (Cdc2-related kinase [1]) was 20 nM.
Compound `CC(C)(C)c1ccc(C(=O)Nc2nnc(-c3cccnc3)o2)cc1` has a selectivity ratio [8] of over 48 and an IC90 [9] of 0.84 µg/mL (≈ 2.61 µM).
`COc1ccccc1-c1cnn2c(Nc3cccc(Cl)c3)cc(C)nc12` showed a selectivity ratio [8] of 19 and an IC90 [9] of 1.7 µg/mL (≈ 4.66 µM).
Compound `O=S(=O)(Nc1ccccc1)c1cc(Cl)sc1Cl` has an IC50 [6] of 15000 nM.
Work on `COc1ccccc1C(=O)c1cnc(NC2CCN(C(=O)Nc3ccccc3)CC2)nc1N` yielded an Activity (Trypanosoma brucei) of 100%, an IC50 (Leishmania donovani [10]) of 1000 nM and an IC50 (Leishmania donovani [11]) of 1000 nM. It also gave an IC50 [12] of 70 nM and an IC50 [13] of 70 nM.
`COc1ccc(-n2nnc3c(N4CCCC(O)C4)nc(CC4CCCCC4)nc32)cc1` (centres undefined) gave an IC50 (Leishmania major) of 8600 nM and an IC50 (Cdc2-related kinase [14]) of 5300 nM.
`CN1CCC(c2cc(-c3ccncc3)c(-c3ccc(F)cc3)[nH]2)CC1` gave an IC50 [15] of 8 nM.
